Source: PubChem BioAssay AID624344 (Sanford-Burnham Center for Chemical Genomics, 2012)
pIC50: −log10 of the molar value. The source made the active and inactive calls. How the calls were made is not given here.

Legend:
[1] = inhibitors of PAF-induced NFkB signaling in CF airway cells, dose response, cell-based, uHTS hits, panel, cytotoxicity readout (AID 624344); settings: CF bronchial epithelial cells, PAF-induced NFkB reporter inhibition; with PAF, mean of runs
[2] = test system: Cytotoxicity; assay: as above; settings: CF bronchial epithelial cells, mean of runs

| Structure (SMILES) | pIC50 [1] | pIC50 [2] | IC50 [2] | IC50 [1] |
| --- | --- | --- | --- | --- |
| CCOC(=O)C1=C(CC)Nc2ccccc2N=C1NC(=O)c1oc2ccccc2c1C | 5.35 | 5.21 |  |  |
| CC(C)Cc1nc2oc3c(NCC4CCCO4)ncnc3c2c2c1CCC2 (stereo unspecified) | 5.54 | 5.42 |  |  |
| CN(C)c1ccc(C(C(=O)NC2CCCCC2)N(Cc2ccco2)C(=O)c2snc(C(N)=O)c2N)cc1 (stereo unspecified) | 5.39 | 5.04 |  |  |
| Cn1cccc1C(=O)NC(=O)COC(=O)c1ccc(S(C)(=O)=O)c([N+](=O)[O-])c1 | 5.28 | 5.23 |  |  |
| COc1cccc(OC)c1C(=O)Nc1cc(C)nn1-c1nc2ccccc2[nH]1 | 5.42 | 5.00 |  |  |
| COc1ccc2[nH]c3c(c2c1)CCNC3=O | 5.86 |  | > 79 µM (inactive) |  |
| COc1cccc(N2CCN(c3c(C#N)c(C(F)(F)F)nn3C)CC2)c1 | 5.64 |  | 58.4 µM (inactive) |  |
| CS(=O)(=O)c1ccc2nc(NC(=O)Nc3cccc(Cl)c3)sc2c1 | 5.44 | 5.48 |  |  |
| COc1cccc(-c2nnc3n2N=C(C(C)(C)C)CS3)c1 | 6.35 | 4.94 |  |  |
| COc1cc2c(c(OC)c1OC)-c1ccc(SC)c(=O)cc1C(NC(=O)C(F)(F)F)CC2 (stereo unspecified) |  |  | > 79 µM (inactive) | inactive |
| CCCN(CCC)c1ncnc2nc[nH]c12 | 5.88 |  | 57.3 µM (inactive) |  |
| O=C(CCS(=O)(=O)c1ccccc1)N(CCCN1CCOCC1)c1nc2c(F)cccc2s1 | 5.12 | 4.74 |  |  |
| C=C(C)[C@@H]1CC[C@]2(C(=O)O)CC[C@]3(C)[C@H](CC[C@@H]4[C@@]5(C)CC[C@H](O)C(C)(C)[C@@H]5CC[C@]43C)[C@@H]12 |  | 4.37 |  | inactive |
| COc1ccc(-c2csc(/C(C#N)=C\c3ccc(O)c([N+](=O)[O-])c3)n2)cc1OC | 5.55 | 4.34 |  |  |
| O=C(COc1ccc(Cl)cc1)Nc1ncc([N+](=O)[O-])s1 | 5.99 | 5.48 |  |  |
| CC(C)(C)c1nc(NC(=O)Nc2ccccc2)sc1Br | 5.18 | 4.90 |  |  |
| COC(=O)N1C(=O)[C@@](c2ccc(OC)cc2)(C(C)C)N1C(=O)OC | 5.33 | 4.31 |  |  |

| Structure (SMILES) | pIC50 [1] | pIC50 [2] | IC50 [2] | IC50 [1] |
| --- | --- | --- | --- | --- |
| c1nc(N2CCOCC2)c2c3c(sc2n1)CCCC3 | 5.16 |  | 62.3 µM (inactive) |  |
| CN1CCC(OC(=O)c2cc3cc(Cl)cc(Cl)c3oc2=O)CC1 | 5.79 | 4.35 |  |  |
| Cc1ccc(NC(=O)c2nc[nH]c2C(=O)NCCCNC(=O)c2[nH]cnc2C(=O)Nc2ccc(C)cc2)cc1 | 5.42 | 4.85 |  |  |
| COc1cc(-c2cnc3c(NC=O)cc(-c4ccc(C)cc4)cn23)cc(OC)c1OC |  | 4.66 |  | > 79 µM (inactive) |
| CCS(=O)(=O)c1ncc(Cl)c(C(=O)Nc2ccccc2OC)n1 | 5.74 | 5.13 |  |  |
| C/C=C/COC(=O)c1[nH]c2c(c1C)C(=O)CC(c1ccco1)C2 (stereo unspecified) |  |  | 52.8 µM (inactive) | inactive |
| Clc1ccc(-c2csc3ncnc(N4CCc5ccccc5C4)c23)cc1 | 5.40 | 4.72 |  |  |
| O=C(CN1C(=O)CCC1=O)Nc1nc(-c2nc3ccccc3s2)cs1 | 5.31 |  | > 79 µM (inactive) |  |
| O=C(/C=C/c1cccc([N+](=O)[O-])c1)n1cnc2ccccc21 | 5.70 | 4.95 |  |  |
| COc1ccc(-c2cnc3c(NC=O)cc(-c4ccccc4OC)cn23)cc1OC | 5.19 | 4.86 |  |  |
| CCCc1cc(-c2[nH]ncc2-c2ccc3c(c2)OCCCO3)c(O)cc1O | 5.06 | 4.59 |  |  |
| Cc1ccc2nc(C(F)(F)F)c(C#N)c(N)c2c1 | 5.49 | 5.04 |  |  |
| Cc1ccnc(Nc2nc(-c3sc(C)nc3C)cs2)c1 | 5.29 | 4.78 |  |  |
| Oc1ccc(Cl)cc1Cc1cc(Cl)ccc1O | 5.21 | 4.60 |  |  |
| COC(=O)c1ccc(NC(=O)c2ccccc2NS(=O)(=O)c2ccccc2)cc1 | 5.34 | 4.41 |  |  |
| CCOC(=O)c1sc(NC(=O)c2cccc(S(=O)(=O)N3CCc4ccccc43)c2)c(C#N)c1C | 5.99 | 5.16 |  |  |
